Laboratory results as given in ChEMBL document CHEMBL1201862, “PubChem BioAssay data set” (2004).
Activity calls are given as the source filed them.

Assays:
[1] = alpha-synuclein stem-loop luciferase translation blockers – H4 neuroglioma cells, luminescence, confirmation (AID 1988); format: functional, cell-based
[2] = luciferase reporter signal suppression in cells – H4 neuroglioma cells, luminescence, dose response (AID 1990); format: functional, cell-based
[3] = Luminescence Cell-Based Dose Response HTS to Identify Inhibitors of 5'UTR Stem-Loop Driven Prion Protein mRNA Translation in H4 Neuroglioblastoma Cells. [Related pubchem assays: 1827 (Project Summary), 1813 (Primary HTS)]; format: functional
Streptococcus = assay: GAS UMAA2166 growth inhibition – luminescence, BacTiterGlo, counter-screen for streptokinase expression inhibitor project, dose response (AID 1915); format: functional, organism-based;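 further: potency for reduction of bacterial viability or growth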
[4] = test system: Streptococcus sp. 'group A'; assay: Streptococcus pyogenes SK(-)GAS viability under kanamycin – luminescence, BacTiterGlo, confirmation, counter-screen for streptokinase expression inhibitor project, dose response (AID 1900); format: functional, organism-based
Streptokinase A = biological target: T1, Streptokinase A (Streptococcus pyogenes serotype M1, UniProt P10520); assay: viability-normalized secreted streptokinase activity reduction – plasminogen activation absorbance, OD405, dose response (AID 1914); format: functional, Streptococcus pyogenes M1 GAS;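 further: secreted streptokinase activity via plasminogen activation per viability signal from cell pellet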
T1 sequence (P10520 whole entry): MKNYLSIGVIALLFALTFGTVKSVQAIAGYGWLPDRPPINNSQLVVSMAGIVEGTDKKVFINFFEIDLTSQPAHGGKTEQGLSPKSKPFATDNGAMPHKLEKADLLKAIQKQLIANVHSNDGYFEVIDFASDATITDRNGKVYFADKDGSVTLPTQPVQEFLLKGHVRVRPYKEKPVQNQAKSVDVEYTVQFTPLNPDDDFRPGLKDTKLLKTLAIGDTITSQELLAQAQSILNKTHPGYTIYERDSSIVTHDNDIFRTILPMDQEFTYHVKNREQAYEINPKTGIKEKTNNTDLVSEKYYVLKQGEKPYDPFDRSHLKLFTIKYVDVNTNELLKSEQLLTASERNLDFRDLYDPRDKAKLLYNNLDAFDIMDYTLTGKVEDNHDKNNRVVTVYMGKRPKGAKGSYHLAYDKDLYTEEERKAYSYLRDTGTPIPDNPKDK

Cytochrome P450 1A2 = biological target: T2, Cytochrome P450 1A2 (Homo sapiens, UniProt P05177);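 further: PubChem cytochrome P450 panel assay, CYP1A2 panel member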
T2 sequence (P05177 whole entry): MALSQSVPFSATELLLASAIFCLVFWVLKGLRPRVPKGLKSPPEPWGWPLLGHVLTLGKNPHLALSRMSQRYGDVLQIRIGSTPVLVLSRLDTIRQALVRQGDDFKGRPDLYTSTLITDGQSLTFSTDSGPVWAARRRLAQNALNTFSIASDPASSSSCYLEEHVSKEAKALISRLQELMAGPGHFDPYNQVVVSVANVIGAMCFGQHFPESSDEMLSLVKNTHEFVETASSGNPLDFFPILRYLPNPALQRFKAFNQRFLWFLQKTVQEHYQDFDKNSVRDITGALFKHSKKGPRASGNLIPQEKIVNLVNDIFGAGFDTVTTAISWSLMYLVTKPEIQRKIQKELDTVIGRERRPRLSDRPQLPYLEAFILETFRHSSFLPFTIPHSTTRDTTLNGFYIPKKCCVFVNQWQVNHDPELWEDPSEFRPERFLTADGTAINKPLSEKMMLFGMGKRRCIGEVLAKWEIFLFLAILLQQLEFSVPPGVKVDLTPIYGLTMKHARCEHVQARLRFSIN

Cytochrome P450 2C19 = Cytochrome P450 2C19 (Homo sapiens, UniProt P33261); assay: Cytochrome panel assay with activity outcomes. Panel member name: p450-cyp2c19 Compounds with AC50 equal or less than 10 uM are considered active; format: functional; conditions: read-out: AC50
[5] = Luminescence Cell-Based Dose Response HTS to Identify Activators of Luciferase Translation or Activity in H4 […] Cells. [Related pubchem assays: 1829 (Project Summary), 1814 (Primary HTS)]; format: functional
[6] = Luminescence Cell-Based Dose Confirmation HTS to Identify Activators of 5'UTR Stem-Loop Driven Alpha-Synuclein mRNA Translation in H4 Neuroglioblastoma Cells. [Related pubchem assays: 1829 (Project Summary), 1814 (Primary HTS)]; format: functional
H4 = assay: Luminescence Cell-Based Dose Response HTS to Identify Activators of 5'UTR Stem-Loop Driven Prion Protein mRNA Translation in H4 Neuroglioblastoma Cells. [Related pubchem assays: 1829 (Project Summary), 1814 (Primary HTS)]; format: functional; conditions: Homo sapiens
Cytochrome P450 3A4 = Cytochrome P450 3A4 (Homo sapiens, UniProt P08684);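 further: CYP3A4 tested as one member of a cytochrome P450 panel screen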
Cytochrome P450 2C9 = Cytochrome P450 2C9 (Homo sapiens, UniProt P11712)
[7] = biological target: T3, Heat shock factor protein 1 (Mus musculus, UniProt P38532); assay: decrease of HSF1-responsive luciferase luminescence – cell-based, NIH3T3, dose retest, confirmation (AID 2382); format: functional;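 further: NIH3T3 fibroblasts with HSF1-driven luciferase reporter stressed by proteasome inhibitor MG132; luminescence from HSF1-driven luciferase expression after 8 hours of MG132 stress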
T3 sequence (P38532 whole entry): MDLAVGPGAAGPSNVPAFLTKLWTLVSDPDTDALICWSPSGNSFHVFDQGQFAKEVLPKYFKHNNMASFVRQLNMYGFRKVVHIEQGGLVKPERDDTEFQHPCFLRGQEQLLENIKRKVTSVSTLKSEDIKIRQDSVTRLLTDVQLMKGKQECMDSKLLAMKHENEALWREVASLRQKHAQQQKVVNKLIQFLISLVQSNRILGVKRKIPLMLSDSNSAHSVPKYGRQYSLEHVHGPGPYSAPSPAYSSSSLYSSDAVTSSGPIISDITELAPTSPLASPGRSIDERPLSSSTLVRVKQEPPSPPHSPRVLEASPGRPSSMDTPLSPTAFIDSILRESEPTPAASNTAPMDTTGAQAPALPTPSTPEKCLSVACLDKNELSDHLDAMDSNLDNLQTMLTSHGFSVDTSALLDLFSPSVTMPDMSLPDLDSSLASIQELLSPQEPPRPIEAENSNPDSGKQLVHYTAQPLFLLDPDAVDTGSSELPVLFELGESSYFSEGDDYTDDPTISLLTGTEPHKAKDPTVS

Paired box protein Pax-8 = Paired box protein Pax-8 (Homo sapiens, UniProt Q06710); assay: PAX8 transcriptional activity inhibition in RMG-I – RMG-I cells, luciferase, cherry-pick, dose response (AID 687027); format: functional, cell-based;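 further: luciferase reporter driven by Pax8 target thyroperoxidase promoter measured by SteadyGlo luminescence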
Chain of Paired box protein Pax-8 (Q06710 whole entry): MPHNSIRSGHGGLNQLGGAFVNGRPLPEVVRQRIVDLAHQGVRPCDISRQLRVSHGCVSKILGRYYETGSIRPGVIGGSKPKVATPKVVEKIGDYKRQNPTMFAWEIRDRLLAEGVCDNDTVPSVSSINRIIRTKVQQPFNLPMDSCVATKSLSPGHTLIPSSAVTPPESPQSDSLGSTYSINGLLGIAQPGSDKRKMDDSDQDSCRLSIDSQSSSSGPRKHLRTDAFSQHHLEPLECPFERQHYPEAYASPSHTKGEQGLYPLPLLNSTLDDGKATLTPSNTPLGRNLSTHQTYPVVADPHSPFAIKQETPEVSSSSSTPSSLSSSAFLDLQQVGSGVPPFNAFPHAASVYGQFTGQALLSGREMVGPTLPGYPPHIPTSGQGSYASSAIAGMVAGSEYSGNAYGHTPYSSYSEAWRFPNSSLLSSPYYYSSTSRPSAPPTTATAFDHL

Chain of Cytochrome P450 2C19 (P33261 whole entry): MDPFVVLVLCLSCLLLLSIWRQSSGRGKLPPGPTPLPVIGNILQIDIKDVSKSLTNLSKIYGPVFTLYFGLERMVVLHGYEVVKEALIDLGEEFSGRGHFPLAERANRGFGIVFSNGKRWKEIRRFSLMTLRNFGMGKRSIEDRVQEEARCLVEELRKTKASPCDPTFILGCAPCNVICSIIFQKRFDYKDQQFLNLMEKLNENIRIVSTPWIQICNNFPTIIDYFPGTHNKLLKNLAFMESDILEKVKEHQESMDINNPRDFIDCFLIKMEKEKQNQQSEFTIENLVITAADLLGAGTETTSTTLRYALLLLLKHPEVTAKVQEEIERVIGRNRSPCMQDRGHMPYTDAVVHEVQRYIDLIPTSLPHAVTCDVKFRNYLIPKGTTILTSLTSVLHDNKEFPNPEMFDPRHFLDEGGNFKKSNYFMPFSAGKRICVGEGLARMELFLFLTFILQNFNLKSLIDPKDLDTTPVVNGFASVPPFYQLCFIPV
Chain of Cytochrome P450 3A4 (P08684 whole entry): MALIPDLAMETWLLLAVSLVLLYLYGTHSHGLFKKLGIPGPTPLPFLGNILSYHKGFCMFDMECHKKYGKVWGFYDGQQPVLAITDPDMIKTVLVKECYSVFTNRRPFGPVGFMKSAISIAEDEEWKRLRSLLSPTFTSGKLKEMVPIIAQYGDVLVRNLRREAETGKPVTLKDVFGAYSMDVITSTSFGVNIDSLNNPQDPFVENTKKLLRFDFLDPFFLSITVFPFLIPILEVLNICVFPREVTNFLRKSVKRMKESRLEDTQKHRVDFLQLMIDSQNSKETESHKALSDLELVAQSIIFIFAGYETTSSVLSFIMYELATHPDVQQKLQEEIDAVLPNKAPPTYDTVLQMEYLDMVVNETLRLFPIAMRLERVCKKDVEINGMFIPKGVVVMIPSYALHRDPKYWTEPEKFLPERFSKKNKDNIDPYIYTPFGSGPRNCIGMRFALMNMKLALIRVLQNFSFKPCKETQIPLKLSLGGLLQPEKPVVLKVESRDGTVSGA
Chain of Cytochrome P450 2C9 (P11712 whole entry): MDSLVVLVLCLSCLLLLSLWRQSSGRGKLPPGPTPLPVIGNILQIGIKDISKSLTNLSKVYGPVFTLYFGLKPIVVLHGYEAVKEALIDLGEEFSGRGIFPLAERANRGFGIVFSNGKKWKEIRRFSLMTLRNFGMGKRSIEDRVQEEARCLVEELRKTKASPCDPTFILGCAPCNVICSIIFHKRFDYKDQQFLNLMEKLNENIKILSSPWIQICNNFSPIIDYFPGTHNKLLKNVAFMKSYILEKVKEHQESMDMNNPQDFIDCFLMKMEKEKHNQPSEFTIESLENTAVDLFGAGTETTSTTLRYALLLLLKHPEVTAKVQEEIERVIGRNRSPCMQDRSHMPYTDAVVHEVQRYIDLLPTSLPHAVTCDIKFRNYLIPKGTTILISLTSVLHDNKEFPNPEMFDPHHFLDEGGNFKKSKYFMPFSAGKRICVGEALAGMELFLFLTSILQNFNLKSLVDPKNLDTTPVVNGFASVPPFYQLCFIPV

Cc1ccc(NC(=O)c2nc[nH]c2C(=O)N[C@@H](C)c2ccccc2)cc1
EC50 [1]: > 120 µM (not active)
EC50 [2]: 17.3 µM (active)
EC50 [3]: > 120 µM (not active)
EC50 (Streptococcus): 16.9 µM (active)
EC50 [4]: 1.05 µM (active)
EC50 (Streptokinase A): > 150 µM (not active)

COC(=O)[C@@]1(Cc2ccc(OC)cc2)[C@H]2c3cc(C(=O)N(C)C)n(CCN4CNCC4=O)c3C[C@H]2CN1C(=O)c1ccccc1
AC50 (Cytochrome P450 1A2): 20 µM (inconclusive)
AC50 (Cytochrome P450 2C19): 15.8 µM (inconclusive)

O=C(Nc1nnc(-c2ccccc2F)s1)C1CCCO1 (configuration not stated)
EC50 [5]: 0.89 µM (active)
EC50 [6]: 0.223 µM (active)

O=C(c1ccc(C[S+]([O-])Cc2ccccc2Cl)o1)N1CCN(C2CCCCC2)CC1 (configuration not stated)
EC50 (H4): > 120 µM (not active)
EC50 [5]: > 120 µM (not active)
EC50 [6]: > 120 µM (not active)

CCCN(CCC)[C@@H]1CCc2c(OC)cccc2[C@@H]1C
AC50 (Cytochrome P450 1A2): 31.6 µM (inconclusive)

CNS(=O)(=O)c1ccc(NC(=O)c2cnn3c(C(F)F)cc(-c4ccccc4)nc23)cc1
EC50 [1]: 12.1 µM (active)
EC50 [2]: > 120 µM (not active)
EC50 [3]: 31.8 µM (active)
EC50 (Streptococcus): > 150 µM (not active)
EC50 [4]: 85.3 µM (active)
EC50 (Streptokinase A): > 150 µM (not active)

COCCn1c(=O)c(-c2ccc(F)c(F)c2)nc2cncnc21
AC50 (Cytochrome P450 3A4): 12.6 µM (inconclusive)

C/C(CCN1CCCc2nc(C)c(C)cc21)=N\O[C@@H](C)c1cc(-c2c(C)cc(C)cc2C)no1
AC50 (Cytochrome P450 3A4): 5.01 µM (inconclusive)

COc1cccc(Cn2c(=O)c(-c3cccc(C#N)c3)nc3cnc(Nc4ccccc4)nc32)c1
AC50 (Cytochrome P450 3A4): 0.794 µM (inconclusive)

C=CCn1c2ccccc2c2nnc(S)nc21
EC50 [1]: > 120 µM (not active)
EC50 [2]: 17.8 µM (active)
EC50 [3]: > 120 µM (not active)

Cc1cc(C)c2c(N)c(C(=O)Nc3cccc(C)c3C)sc2n1
EC50 (H4): > 120 µM (not active)
EC50 [5]: 3.92 µM (active)
EC50 [6]: > 120 µM (not active)

O=c1c2cc(-c3ccccc3)sc2ncn1-n1cccc1
EC50 (H4): 15 µM (active)
EC50 [5]: 0.674 µM (active)
EC50 [6]: 0.473 µM (active)

COc1cc2c(cc1OC)CN(c1ccc3ccccc3n1)CC2
EC50 (H4): 15.9 µM (active)
EC50 [5]: 11.9 µM (active)
EC50 [6]: 17 µM (active)

CCOC(=O)c1ncn2c1[C@H]1CCCN1C(=O)c1cc(OC)ccc1-2
AC50 (Cytochrome P450 1A2): 39.8 µM (inconclusive)

Nc1ccc(S(=O)(=O)c2ccc(NC(=O)c3cccnc3)cc2)cc1
AC50 (Cytochrome P450 3A4): 3.16 µM (inconclusive)
AC50 (Cytochrome P450 2C9): 6.31 µM (inconclusive)

Cc1cccc(-n2ccnc2SCC(=O)Nc2nccs2)c1
EC50 (H4): > 120 µM (not active)
EC50 [5]: 23.4 µM (active)
EC50 [6]: 6.34 µM (active)

Cc1ccccc1-c1cc(C(=O)Nc2nc3c(s2)CCCC3)c2ccccc2n1
AC50 (Cytochrome P450 1A2): 3.55 µM (inconclusive)

CCOc1ccc(-c2nc(S(=O)(=O)c3ccccc3)c(NCc3cccnc3)o2)cc1
EC50 [1]: > 120 µM (not active)
EC50 [2]: > 120 µM (not active)
EC50 [3]: > 120 µM (not active)

Oc1ccc(CNCc2ccccc2)c2cccnc12
AC50 (Cytochrome P450 1A2): 5.01 µM (inconclusive)

COc1cccc(Nc2ncc3nc(-c4cc(F)cc(F)c4)c(=O)n(C4CC4)c3n2)c1
AC50 (Cytochrome P450 1A2): 6.31 µM (inconclusive)

O=c1c2c(n3cnnc3n1C1CCCCC1)-c1ccccc1CC21CCCCC1
EC50 [1]: > 120 µM (not active)
EC50 [2]: > 120 µM (not active)
EC50 [3]: > 120 µM (not active)

COc1ccc(NS(=O)(=O)c2cccc(N3CC(=O)C(c4ccccc4)=C3N)c2)cc1
EC50 [1]: > 120 µM (not active)
EC50 [2]: > 120 µM (not active)
EC50 [3]: > 120 µM (not active)

CCOCC(=O)Nc1c(C(=O)Nc2ccccc2OC)oc2ccccc12
AC50 (Cytochrome P450 3A4): 6.31 µM (inconclusive)

COC(=O)c1nn(-c2cccc(C(F)(F)F)c2)c(=O)cc1Sc1ccccn1
AC50 (Cytochrome P450 3A4): 20 µM (inconclusive)
EC50 [7]: > 195 µM (not active)
AC50 (Cytochrome P450 2C9): 3.98 µM (inconclusive)

CCC(CC)C(=O)Nc1cccc(/C(C)=N\NC(=O)c2ccc(C)s2)c1
AC50 (Cytochrome P450 1A2): 3.16 µM (inconclusive)
AC50 (Cytochrome P450 2C9): 0.355 µM (inconclusive)

CN1CCN(CCc2ccc(Cl)c(Cl)c2)CC1
AC50 (Cytochrome P450 1A2): 25.1 µM (inconclusive)

Cc1cc(NC(=O)C2C3C(=O)N(Cc4ccc(Cl)cc4)C(C(=O)NC(C)(C)C)C34C=CC2(C)O4)no1 (configuration not stated)
AC50 (Cytochrome P450 3A4): 25.1 µM (inconclusive)
EC50 [7]: > 195 µM (not active)

Cc1c(NC(=O)/C(C#N)=C/c2ccc(-c3ccccc3Cl)o2)c(=O)n(-c2ccccc2)n1C
EC50 [1]: > 120 µM (not active)
EC50 [2]: 13.4 µM (active)
EC50 [3]: > 120 µM (not active)

COc1ccc(-n2c(=O)c(-c3ccccc3)nc3cnc(N4CCOCC4)nc32)cc1
AC50 (Cytochrome P450 1A2): 15.8 µM (inconclusive)

CC1(C)CC(=O)C(CCCN2C(=O)c3ccccc3C2=O)C(=O)C1
AC50 (Cytochrome P450 1A2): 28.2 µM (inconclusive)
AC50 (Cytochrome P450 2C19): 39.8 µM (inconclusive)

O=c1c(-c2ccc(Cl)cc2)nc2cnc(Nc3ccccc3)nc2n1C[C@H]1CCCO1
AC50 (Cytochrome P450 1A2): 12.6 µM (inconclusive)

Cc1ccc(S(=O)(=O)N(C)C[C@H]2OCCCC[C@@H](C)Oc3ccc(NS(=O)(=O)c4ccc(F)cc4)cc3C(=O)N([C@@H](C)CO)C[C@H]2C)cc1
AC50 (Paired box protein Pax-8): 8.12 µM (active)

CCN(CC)S(=O)(=O)c1cccc(-c2nnc(S)n2/N=C/c2ccc(OC)cc2)c1
EC50 [1]: 34.8 µM (active)
EC50 [2]: 23.8 µM (active)
EC50 [3]: > 120 µM (not active)

NS(=O)(=O)c1ccc(NC2(C(=O)O)CCCC2)cc1
AC50 (Cytochrome P450 1A2): 0.794 µM (inconclusive)

C[C@H](O)C#Cc1cnc2c(c1)C(=O)N([C@H](C)CO)C[C@H](C)[C@H](CN(C)Cc1ccc(-c3ccccc3)cc1)O2
AC50 (Paired box protein Pax-8): 5.05 µM (active)

NC[C@](O)(CS(=O)(=O)O)c1ccc(Cl)cc1
AC50 (Cytochrome P450 3A4): 1 µM (inconclusive)
AC50 (Cytochrome P450 1A2): 31.6 µM (inconclusive)

CCc1ccc(N2C(=O)/C(=C/c3cccs3)N(CC(=O)OC)C2=S)cc1
AC50 (Cytochrome P450 3A4): 12.6 µM (inconclusive)
AC50 (Cytochrome P450 1A2): 15.8 µM (inconclusive)
AC50 (Cytochrome P450 2C9): 12.6 µM (inconclusive)
AC50 (Cytochrome P450 2C19): 3.98 µM (inconclusive)

c1ccc2c3c([nH]c2c1)[C@@H]1[C@H]2CC[C@H]([C@H]4CCCN[C@H]42)N1CC3
AC50 (Cytochrome P450 1A2): 15.8 µM (inconclusive)
